For test [1], the system named is IL1β-induced IL8 release in THP1 cells. In words: IRAK IL8 secretion functional assay. In kind it is cell-based. The conditions noted are these: Homo sapiens; THP-1 cells, IL1β 100 ng/ml overnight, IL8 by HTRF; read-out: IC50, Secretion THP-1/IL-β induced IL8 release. An excerpt:
IRAK IL8 Secretion Functional Assay:
THP1 cells are human monocytes derived from acute monocytic leukemia. IL1β receptor expressed on the surface membrane of THP1 cells induced IL8 release. IRAKs are kinase signaling downstream of TLRs and TNF, IL-18, IL-33 and IL-1 receptors.
In cells, IRAK4 is upstream of IRAK1.
The Human IL8 Kit, provided by CysBio International based in Bagnols/Cèze FR, allows for the quantitative determination of IL-8 in cell-culture supernatants.
Anti-cytokine IL8 antibodies are respectively labeled with europium Cryptate and XL665. Upon their binding to IL-8 molecules, the two antibodies come into close proximity, allowing FRET (Fluorescence Resonance Energy Transfer) to occur. This FRET increases proportionally to IL-8 concentrations and be converted in IL8 pg amounts.
THP-1 cells are seeded on Day 1 in 384 well plate with RPMI 1640 at a density of 30 000 cells/well. Compounds 4×/2% DMSO (range of concentrations from 20 μM to 1 nM) and IL1β 4× at 100 ng/ml final are added to cells overnight at 37° C., 5% CO2. Measurement of IL-8 secretion is done by mixing on Day2 10 μl of supernatant with 10 μl of a mix solution of europium Cryptate and XL665 (v:v) as described by supplier.
HTRF (homogeneous time resolved fluorescence) signal is measured after 3 hours incubation time at 30° C. with a BMG Pherastar reader or equivalent.

For test [2], the system named is T1, IRAK1/4 human.
T1 construct: fused on or other part: His tag and TEV cleavage site at the N-terminus
In words: IRAK1/4 phosphorylation IC50 (enzymatic assay, table 2). In kind it is biochemical. The note with it: human IRAK1/4 phosphorylation. In outline: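 Human IRAK-1 or IRAK-4, each carrying a His-TEV tag, was incubated with ATP and compounds in DMSO ranging from 20 µM to 1 nM in 384-well plates, and IRAK-4 reactions also contained STK1-biotin peptide. Reactions ran in 50 mM Hepes pH7.0 with MgCl2, DTT, EGTA and BSA for 2 or 3 hours, with 2% DMSO controls. Inhibition is given as IC50.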

The text below walks through data of patent publication US9073892B2, “Indazolyl triazol derivatives” (Merck Serono S.A., priority 2010, dated 2015).

Each structure is given as a SMILES string.

For the compound `COc1cc(-n2cc(-c3n[nH]c4ccccc34)nn2)ccc1C(=O)N1CCOCC1` [Example 34, 3-{1-[3-methoxy-4-(morpholin-4-ylcarbonyl)phenyl]-1H-1,2,3-triazol-4-yl}-1H-indazole], the results for the IC50 in test [1] and in test [2] were 100 to 1000 nM and 1000 to 5000 nM, respectively.
With `O=C(c1ccc(-n2cc(-c3n[nH]c4ccccc34)nn2)cc1Cl)N1CCOCC1` [Example 89, 3-{1-[3-chloro-4-(morpholin-4-ylcarbonyl)phenyl]-1H-1,2,3-triazol-4-yl}-1H-indazole], the IC50 fell in the range of 1000 to 5000 nM in test [1] and 100 to 1000 nM in test [2].
`CN1CCCC(CNC(=O)c2ccc(-n3cc(-c4n[nH]c5ccccc45)nn3)cc2)C1` (centres unmarked) [Example 77, 4-[4-(1H-indazol-3-yl)-1H-1,2,3-triazol-1-yl]-N-[(1-methylpiperidin-3-yl)methyl]benzamide]: the IC50 in test [1] and in test [2] was 100 to 1000 nM each time.
Consider `O=C(c1ccc(-n2cc(-c3n[nH]c4ccccc34)nn2)cc1)N1CCCCC1` [Example 38, 3-{1-[4-(piperidin-1-ylcarbonyl)phenyl]-1H-1,2,3-triazol-4-yl}-1H-indazole], for which the results for the IC50 in test [1] and in test [2] were 100 to 1000 nM and 1000 to 5000 nM, respectively.
As to `O=C(Nc1cnn(CCN2CCOCC2)c1)c1ccc(-n2cc(-c3n[nH]c4ccccc34)nn2)cc1` [Example 111, 4-[4-(1H-indazol-3-yl)-1H-1,2,3-triazol-1-yl]-N-[1-(2-morpholin-4-ylethyl)-1H-pyrazol-4-yl]benzamide], the IC50 in test [1] and in test [2] was 100 to 1000 nM in each case.
As to `O=C(c1ccc(-n2cc(-c3n[nH]c4ccccc34)nn2)cc1)N1CCC(CO)CC1` [Example 28, (1-{4-[4-(1H-indazol-3-yl)-1H-1,2,3-triazol-1-yl]benzoyl}piperidin-4-yl)methanol], the IC50 in test [1] and in test [2] was 100 to 1000 nM throughout.
As for `O=C(c1ccc(-n2cc(-c3n[nH]c4ccccc34)nn2)cc1)N1CCCC(C(=O)N2CCCC2)C1` (centres unmarked) [Example 73, 3-[1-(4-{[3-(pyrrolidin-1-ylcarbonyl)piperidin-1-yl]carbonyl}phenyl)-1H-1,2,3-triazol-4-yl]-1H-indazole], the values for the IC50 in test [1] and in test [2] were < 100 nM and 100 to 1000 nM, respectively.
Regarding `CCN1CCN(C(=O)c2ccc(-n3cc(-c4n[nH]c5ccccc45)nn3)cc2)CC1` [Example 52, 3-(1-{4-[(4-ethylpiperazin-1-yl)carbonyl]phenyl)-1H-1,2,3-triazol-4-yl)-1H-indazole], the IC50 in test [1] and in test [2] was 100 to 1000 nM in each case.
For the compound `CN(C)CC1CCCN(C(=O)c2ccc(-n3cc(-c4n[nH]c5ccccc45)nn3)cc2)C1` (centres unmarked) [Example 29, 1-(1-{4-[4-(1H-indazol-3-yl)-1H-1,2,3-triazol-1-yl]benzoyl}piperidin-3-yl)-N,N-dimethylmethanamine], the IC50 in test [1] and in test [2] was 100 to 1000 nM each time.
`O=C(c1ccc(-n2cc(-c3n[nH]c4ccccc34)nn2)cc1)N1CCC[C@@H](O)C1` [Example 96, (3R)-1-{4-[4-(1H-indazol-3-yl)-1H-1,2,3-triazol-1-yl]benzoyl}piperidin-3-ol]: the IC50 in test [1] and in test [2] was 100 to 1000 nM each time.
Consider `O=C(CCc1ccc(-n2cc(-c3n[nH]c4ccccc34)nn2)cc1)N1CCCC1` [Example 23, 3-{1-[4-(3-oxo-3-pyrrolidin-1-ylpropyl)phenyl]-1H-1,2,3-triazol-4-yl}-1H-indazole], for which the figures for the IC50 in test [1] and in test [2] were 100 to 1000 nM and 1000 to 5000 nM, respectively.
In the case of `Cc1ccc2[nH]nc(-c3cn(-c4ccc(C(=O)N5CCOCC5)cc4)nn3)c2c1` [Example 32, 5-methyl-3-{1-[4-(morpholin-4-ylcarbonyl)phenyl]-1H-1,2,3-triazol-4-yl}-1H-indazole], the IC50 in test [1] and in test [2] was 100 to 1000 nM each time.
For `CCN1CCC[C@H]1CNC(=O)c1ccc(-n2cc(-c3n[nH]c4ccc(C)cc34)nn2)cc1` [Example 4, N-{[(2S)-1-ethylpyrrolidin-2-yl]methyl}-4-[4-(5-methyl-1H-indazol-3-yl)-1H-1,2,3-triazol-1-yl]benzamide], the IC50 in test [1] and in test [2] was 100 to 1000 nM each time.
